From ChEMBL document CHEMBL1153579, “Knowledge based identification of MAO-B selective inhibitors using pharmacophore and structure based virtual screening models” (Eur J Med Chem, 2009)

Molecular target: T1, Amine oxidase [flavin-containing] B (Homo sapiens, UniProt P27338)
T1 sequence (P27338 whole entry): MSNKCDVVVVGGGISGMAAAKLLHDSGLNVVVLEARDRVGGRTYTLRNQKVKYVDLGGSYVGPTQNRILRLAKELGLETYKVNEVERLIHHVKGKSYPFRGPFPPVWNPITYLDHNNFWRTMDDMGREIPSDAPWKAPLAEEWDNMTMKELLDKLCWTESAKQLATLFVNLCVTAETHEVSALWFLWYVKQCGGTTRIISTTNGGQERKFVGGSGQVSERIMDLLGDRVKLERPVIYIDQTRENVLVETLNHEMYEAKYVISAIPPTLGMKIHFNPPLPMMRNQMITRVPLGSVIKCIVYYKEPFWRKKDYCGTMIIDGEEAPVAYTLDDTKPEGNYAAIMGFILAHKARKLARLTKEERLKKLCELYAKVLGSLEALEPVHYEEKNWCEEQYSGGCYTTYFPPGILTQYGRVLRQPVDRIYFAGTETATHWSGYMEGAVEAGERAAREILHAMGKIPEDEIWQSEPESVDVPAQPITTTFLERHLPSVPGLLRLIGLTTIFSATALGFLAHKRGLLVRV
Assay: Inhibition of MAOB

Structure (SMILES) | IC50 [µM]
NC1CC1(F)c1ccccc1 (configuration not stated) | 19
COc1ccc(C2=NN(C(=S)Nc3ccccc3)C(c3cccs3)C2)cc1 (configuration not stated) | 92
COc1ccc(C2=NN(C(C)=O)C(c3ccccc3C)C2)c(OC)c1 (configuration not stated) | 40
C=CNC(=S)N1N=C(c2ccc(OC)cc2)CC1c1cccs1 (configuration not stated) | 65
Oc1ccc(/C=C\c2cc(O)cc(O)c2)cc1 [CIS-RESVERATROL] | 61
Cc1ccc(C2(F)CC2N)cc1 (configuration not stated) | 13
CC(=O)NC[C@H]1CN(c2ccc(N3CCOCC3)c(F)c2)C(=O)O1 [LINEZOLID] | 17
CCOC(=O)/C=C/c1ccc(O)c(OC)c1 [ETHYL FERULATE] | 6.7
CCNC(=S)N1N=C(c2ccc(OC)cc2)CC1c1cccs1 (configuration not stated) | 22
C=CCNC(=S)N1N=C(c2ccc(C)cc2)CC1c1cccs1 (configuration not stated) | 240
COc1ccc(C2CC(c3ccccc3)=NN2C(C)=O)cc1OC (configuration not stated) | 25
COc1cc(O)ccc1O | 8.9
